Source: patent US8361970B2, “Growth factor binding molecules” (University of South Florida, priority 2000, dated 2013)
Where “and” joins values, the source holds several entries; their conditions need not be identical. Equal entries are not always repeated. Where two headings read alike, the source gives them in different places.

How the values were obtained:
[1] = target: T1, PDGF-BB (Homo sapiens, UniProt P01127); test: Binding to PDGF-BB by native PAGE / SDS-PAGE gel electrophoresis
T1 construct: host or cells: NIH 3T3 cells carry the receptor
T1 sequence (P01127 82-190 limits assumed): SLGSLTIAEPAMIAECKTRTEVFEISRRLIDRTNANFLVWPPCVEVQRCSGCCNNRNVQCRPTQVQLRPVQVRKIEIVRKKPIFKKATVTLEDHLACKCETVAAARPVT
Experimental: GFB-111 (50 μM) is incubated with buffer A (PBS 0.5% BSA) or PDGF-BB (1, 3 and 4µM in buffer A) at room temperature for 10 minutes. The mixtures are then loaded onto a native 4% PAGE. The gel is then stained with silver nitrate. Duplicate lanes are run in the same gel but are not stained. Bands corresponding to the boxed area are cut out of the lanes of the gel that is not stained, denatured with SDS-PAGE loading buffer (Tris 100 mM pH 6.8, 15% Glycerol, 3% SDS, 7.5% b-mercaptoethanol, 0.05% bromophenol blue), loaded onto a 4% SDS-PAGE gel and silver stained.
The structure activity relationship results in Table 1 are consistent with GFB-111 being a PDGF-BB binding molecule. […] PDGF to its receptor on NIH 3T3 cells is determined by gel electrophoresis by mixing GFB-111 with PDGF-BB. […] FIG. 2B illustrates that the GFB-111 standard (lane 5) as well as the GFB-111 band cut out of FIG. 2A gel (lane 1) migrates on SDS-PAGE as a single band that elutes faster than the dye front. Their separation on SDS-PAGE (lane 2) is confirmed by mixing PDGF-BB standard (lane 4) and GFB-111 standard (lane 5).
GFB-111 is incubated with increasing concentrations of PDGF-BB and the mixtures are then loaded onto native PAGE. […]

[2] = target: T1, PDGF-BB; test: Inhibition of [125I]-PDGF-BB binding to its receptor on NIH 3T3 cells; conditions: FIG. 2C
Experimental: NIH 3T3 (PDGF) or NIH 3T3 cells overexpressing either EGFR (EGF), IGFR (IGF) or Flk-1 (VEGF), are incubated with [^125I]-PDGF, [^125I]-EGF, [^125I]-IGF or [^125I]-VEGF, respectively (50,000 cpm per well) and increasing concentrations of GFB-111 or GFB-116. Cells are incubated at 4° C. for 1-3 h. After discarding media, the cells are washed 3 times with PBS and three times with Tris 25 mM pH 8.0, 1% T-X-100, 10% glycerol, 1% SDS. Lysates plus wash are counted. Excess of cold growth factors is used to obtain non-specific binding levels.
Whether GFB 111 can block [^125I]-PDGF-BB specific binding in NIH 3T3 cells is determined by pre-treatment of the PDGF-BB with increasing concentrations of GFB-111. FIG. 2C illustrates that in the absence of GFB-111, [^125I]-PDGF-BB is bound by NIH3T3 cells. However, pre-treatment with increasing concentrations of GFB-111, results in a concentration-dependent decrease in PDGF-BB binding.

[3] = test system: PDGF-stimulated PDGFR tyrosine phosphorylation; test: Inhibition of PDGF-stimulated PDGFR tyrosine phosphorylation in NIH 3T3 cells (anti-phosphotyrosine Western blot); type: cell-based
Experimental: Starved NIH 3T3 cells are pretreated with various growth factor binding agents (0-100 μM) for 5 min before stimulation with PDGF (10 ng/mL) for 10 min. The cells are then harvested and lysed, and the proteins from the lysates separated by SDS-PAGE and immunoblotted with an anti-phosphotyrosine antibody (4G10: Upstate Biotechnology, Lake Placid, N.Y.). The phosphotyrosine PDGF receptor bands are scanned, and the concentrations of growth factor binding molecules that inhibited the ability of PDGF to stimulate PDGFR tyrosine phosphorylation by 50% are determined.
Starved NIII 3T3 cells (PDGF-BB and PDGF-AA), NIH 3T3 cells overexpressing either EGFR (EGF) or Flk-1 (VEGF) are pre-treated with the indicated concentrations of GFB-111 for 5 minutes before 10 minutes of stimulation with PDGF-BB (10 ng/ml), PDGF-AA (10 ng/ml), EGF (100 ng/ml) and VEGF (50 ng/ml). Cell lysates are run on SDS-PAGE gels, then transferred to nitrocellulose and Western blotted with anti-phosphotyrosine (4G 10) or anti-phosphorylated Erk1/Erk2 (New England Biolabs).
A novel series of protein surface binding agents are prepared that bind PDGF and disrupt its signaling function. The molecules are composed of a central calix[4] arene scaffold to which is attached four peptide loop domains (FIG. 1). The peptide loop component is based on a cyclic hexapeptide in which two residues are replaced by a 3-aminomethylbenzoate dipeptide mimetic containing a 5-amino substituent for attachment to the scaffold. The resulting molecules (as shown in Table 1) contain a functionalized and variable surface approximately 500 Å^2 in area. Several peptide loop sequences are synthesized (Table 1) to provide molecular surfaces with negatively and positively charged as well as hydrophobic regions designed to bind to complementary areas on the target growth factor. To identify PDGF binding molecules from this library, a cell-based screening assay is developed with NIH 3T3 cells to detect molecules capable of blocking PDGF-BB-induced tyrosine autophosphorylation of the PDGF receptor. The ability of the identified molecules to bind PDGF-BB and inhibit interaction with its receptor is then confirmed biochemically. Starved NIH 3T3 cells are pretreated for 5 min with the synthetic molecules prior to stimulation with PDGF for 10 min. The effects of the molecules on PDGF-stimulated receptor tyrosine phosphorylation are determined by the antiphosphotyrosine Western blotting as described in Table 1. […] GFB-111 has four-fold symmetry containing 4 identical peptide loops with negative and hydrophobic residues, GlyAspGlyTyr (GDGY) (SEQ ID NO. 6), that are designed to be complementary to the PDGF surface involved in binding to PDGFR. The area of PDGF-BB that binds PDGFR is composed primarily of positive and hydrophobic residues.
Starved NIH 3T3 cells are pretreated with the various GFBs (0-100 μM) for 5 min. prior to stimulation with PDGF (10 ng/ml) for 10 min. The cells are then harvested lysed and the proteins from the lysates are separated by SDS-PAGE and immunoblotted with an anti-phosphotyrosine antibody (4G10, Upstate Biotechnology, Lake Placid, N.Y.). The phosphotyrosine PDGF receptor bands are scanned and the concentrations of GFBs that inhibit the ability of PDGF to stimulate PDGFR tyrosine phosphorylation by 50% are determined. Data for each compound is representative of at least two independent experiments. FIG. 1 illustrates the structure of growth factor binders. GFBs are synthesized as described by Park, H. D. et al., Protein surface recognition by synthetic receptors: A route to novel sub-micromolar inhibitors for chymotrypsin. J. Am. Chem. Soc. 121, 8-13 (1999); and Hamuro, Y. et al., A calixarene with four peptide loops: An antibody mimic for recognition of protein surfaces. Angew. Chemie Int. Ed. Engl. 36, 2680-2683 (1997), each herein incorporated by reference in its respective entirety.

[4] = test system: human lung adenocarcinoma A-549; test: Antitumor efficacy, A-549 xenograft in nude mice; type: in vivo; conditions: for Inhibition of A-549 tumor growth in nude mice: 50 mg per kg per day

Compound | Binding to PDGF-BB (complex on native PAGE) [1] | Block of PDGF-BB binding to its receptor [2] | Concentration giving complete block of PDGF-BB stimulated receptor tyrosine phosphorylation [3] [µM] | IC50 ([3]; read-out: IC50 of inhibition of PDGF-BB stimulation of PDGF receptor tyrosine autophosphorylation) [µM] | Inhibition of A-549 tumor growth in nude mice [4] | % Tumor growth inhibition ([4]; A-549, 50 mpk, day in parentheses in cell) | IC50 ([3]; 5 min pretreatment, PDGF 10 ng/ml 10 min, read-out: (IC50) Inhibition PDGFR-Y-P) [µM]
CCCCOc1c2cc(C(=O)Nc3cc4cc(c3)C(=O)NCC(=O)N[C@@H](CC(=O)O)C(=O)NCC(=O)N[C@@H](Cc3ccc(O)cc3)C(=O)NC4)cc1Cc1cc(C(=O)Nc3cc4cc(c3)C(=O)NCC(=O)N[C@@H](CC(=O)O)C(=O)NCC(=O)N[C@@H](Cc3ccc(O)cc3)C(=O)NC4)cc(c1OCCCC)Cc1cc(C(=O)Nc3cc4cc(c3)C(=O)NCC(=O)N[C@@H](CC(=O)O)C(=O)NCC(=O)N[C@@H](Cc3ccc(O)cc3)C(=O)NC4)cc(c1OCCCC)Cc1cc(C(=O)Nc3cc4cc(c3)C(=O)NCC(=O)N[C@@H](CC(=O)O)C(=O)NCC(=O)N[C@@H](Cc3ccc(O)cc3)C(=O)NC4)cc(c1OCCCC)C2 [GFB-111] | does indeed contain both PDGF-BB and GFB-111 | blocked | 3 | 0.25 | effective | 62% (30) and 53% (31) and 64% (27) | –
GKGK [GFB-116] | does not bind | not | – | – | inhibits the growth | – | 40
